# Measured values as given in PubChem BioAssay (NCI).
#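 These data come from cells grown in 96-well plates and exposed to compound for 48 hours at five concentrations. TGI: concentration producing complete growth inhibition.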
# Columns and labels:
# Assay in all cases: NCI tumour cell line growth inhibition, 48 h
# U251 CNS = tested on: U251 CNS
# HT29 colon = tested on: HT29 colon
# OVCAR-3 ovarian = tested on: OVCAR-3 ovarian
# MOLT-4 leukemia = tested on: MOLT-4 leukemia
# ACHN renal = tested on: ACHN renal
# UO-31 renal = tested on: UO-31 renal
# CCRF-CEM leukemia = tested on: CCRF-CEM leukemia
# HCT-15 colon = tested on: HCT-15 colon
# SK-MEL-28 melanoma = tested on: SK-MEL-28 melanoma
# MALME-3M melanoma = tested on: MALME-3M melanoma
# NCI-H522 lung = tested on: NCI-H522 lung
# SK-MEL-5 melanoma = tested on: SK-MEL-5 melanoma
# M14 melanoma = tested on: M14 melanoma
# DMS 114 small cell lung = tested on: DMS 114 small cell lung
# SN12C renal = tested on: SN12C renal
# DMS 273 small cell lung = tested on: DMS 273 small cell lung
# NCI-H460 lung = tested on: NCI-H460 lung
# SF-268 CNS = tested on: SF-268 CNS
# KM12 colon = tested on: KM12 colon
# A549 NSCLC = tested on: A549 NSCLC
# SW-620 colon = tested on: SW-620 colon
# LXFL 529 NSCLC = tested on: LXFL 529 NSCLC
# TK-10 renal = tested on: TK-10 renal
# OVCAR-4 ovarian = tested on: OVCAR-4 ovarian
# CAKI-1 renal = tested on: CAKI-1 renal
# M19-MEL melanoma = tested on: M19-MEL melanoma
# HCC-2998 colon = tested on: HCC-2998 colon
# HOP-62 NSCLC = tested on: HOP-62 NSCLC
# 786-0 renal = tested on: 786-0 renal
# SR leukemia = tested on: SR leukemia
# RPMI-8226 leukemia = tested on: RPMI-8226 leukemia
# DLD-1 colon = tested on: DLD-1 colon
# LOX IMVI melanoma = tested on: LOX IMVI melanoma
# SNB-19 CNS = tested on: SNB-19 CNS
# EKVX NSCLC = tested on: EKVX NSCLC
# UACC-257 melanoma = tested on: UACC-257 melanoma
# SK-MEL-2 melanoma = tested on: SK-MEL-2 melanoma
# SF-295 CNS = tested on: SF-295 CNS
# IGROV1 ovarian = tested on: IGROV1 ovarian
# SNB-75 CNS = tested on: SNB-75 CNS
# HOP-92 NSCLC = tested on: HOP-92 NSCLC
# RXF 393 renal = tested on: RXF 393 renal
# A498 renal = tested on: A498 renal
# XF 498 CNS = tested on: XF 498 CNS
# KM20L2 colon = tested on: KM20L2 colon
# OVCAR-5 ovarian = tested on: OVCAR-5 ovarian
# OVCAR-8 ovarian = tested on: OVCAR-8 ovarian
# SK-OV-3 ovarian = tested on: SK-OV-3 ovarian
# NCI-H23 lung = tested on: NCI-H23 lung
# HCT-116 colon = tested on: HCT-116 colon
# UACC-62 melanoma = tested on: UACC-62 melanoma
# HL-60(TB) leukemia = tested on: HL-60(TB) leukemia
# K-562 leukemia = tested on: K-562 leukemia
# COLO 205 colon = tested on: COLO 205 colon
# SF-539 CNS = tested on: SF-539 CNS
# NCI-H226 lung = tested on: NCI-H226 lung
structure (smiles),measurement,setting,value
CSc1nc2c(nc(C)c(=O)n2C2OCC(OC(C)=O)C(OC(C)=O)C2OC(C)=O)c(=O)[nH]1 (centres undefined),TGI,U251 CNS,> 100 µM
same,TGI,HT29 colon,> 100 µM
same,TGI,OVCAR-3 ovarian,> 100 µM
same,TGI,MOLT-4 leukemia,> 100 µM
same,TGI,ACHN renal,> 100 µM
same,TGI,UO-31 renal,> 100 µM
same,TGI,CCRF-CEM leukemia,> 100 µM
same,TGI,HCT-15 colon,> 100 µM
same,TGI,SK-MEL-28 melanoma,> 100 µM
same,TGI,MALME-3M melanoma,> 100 µM
same,TGI,NCI-H522 lung,> 100 µM
same,TGI,SK-MEL-5 melanoma,> 100 µM
same,TGI,M14 melanoma,> 100 µM
same,TGI,DMS 114 small cell lung,> 100 µM
same,TGI,SN12C renal,> 100 µM
same,TGI,DMS 273 small cell lung,> 100 µM
same,TGI,NCI-H460 lung,> 100 µM
same,TGI,SF-268 CNS,> 100 µM
same,TGI,KM12 colon,> 100 µM
same,TGI,A549 NSCLC,> 100 µM
same,TGI,SW-620 colon,> 100 µM
same,TGI,LXFL 529 NSCLC,> 100 µM
same,TGI,TK-10 renal,> 100 µM
same,TGI,OVCAR-4 ovarian,> 100 µM
same,TGI,CAKI-1 renal,> 100 µM
same,TGI,M19-MEL melanoma,> 100 µM
same,TGI,HCC-2998 colon,> 100 µM
same,TGI,HOP-62 NSCLC,> 100 µM
same,TGI,786-0 renal,> 100 µM
same,TGI,SR leukemia,> 100 µM
same,TGI,RPMI-8226 leukemia,> 100 µM
same,TGI,DLD-1 colon,> 100 µM
same,TGI,LOX IMVI melanoma,> 100 µM
same,TGI,SNB-19 CNS,> 100 µM
same,TGI,EKVX NSCLC,> 100 µM
same,TGI,UACC-257 melanoma,> 100 µM
same,TGI,SK-MEL-2 melanoma,> 100 µM
same,TGI,SF-295 CNS,> 100 µM
same,TGI,IGROV1 ovarian,> 100 µM
same,TGI,SNB-75 CNS,> 100 µM
same,TGI,HOP-92 NSCLC,> 100 µM
same,TGI,RXF 393 renal,> 100 µM
same,TGI,A498 renal,> 100 µM
same,TGI,XF 498 CNS,> 100 µM
same,TGI,KM20L2 colon,> 100 µM
same,TGI,OVCAR-5 ovarian,> 100 µM
same,TGI,OVCAR-8 ovarian,> 100 µM
same,TGI,SK-OV-3 ovarian,> 100 µM
same,TGI,NCI-H23 lung,> 100 µM
same,TGI,HCT-116 colon,> 100 µM
same,TGI,UACC-62 melanoma,> 100 µM
same,TGI,HL-60(TB) leukemia,> 100 µM
same,TGI,K-562 leukemia,> 100 µM
same,TGI,COLO 205 colon,> 100 µM
O=C(c1ccc(O)cc1)C1c2c3c(cc(O)c2C(c2ccc(O)cc2)C1c1cc(O)cc(O)c1)OC(c1ccc(O)cc1)C3c1cc2c(cc1O)OC(c1ccc(O)cc1)C2c1cc(O)cc(O)c1 (centres undefined),TGI,U251 CNS,> 12.5 µM
same,TGI,OVCAR-3 ovarian,> 12.5 µM
same,TGI,MOLT-4 leukemia,> 12.5 µM
same,TGI,ACHN renal,> 12.5 µM
same,TGI,UO-31 renal,> 12.5 µM
same,TGI,CCRF-CEM leukemia,> 12.5 µM
same,TGI,HCT-15 colon,> 12.5 µM
same,TGI,SK-MEL-28 melanoma,> 12.5 µM
same,TGI,MALME-3M melanoma,> 12.5 µM
same,TGI,NCI-H522 lung,> 12.5 µM
same,TGI,SK-MEL-5 melanoma,> 12.5 µM
same,TGI,M14 melanoma,> 12.5 µM
same,TGI,DMS 114 small cell lung,> 12.5 µM
same,TGI,SN12C renal,> 12.5 µM
same,TGI,DMS 273 small cell lung,> 12.5 µM
same,TGI,NCI-H460 lung,> 12.5 µM
same,TGI,SF-268 CNS,> 12.5 µM
same,TGI,KM12 colon,> 12.5 µM
same,TGI,A549 NSCLC,> 12.5 µM
same,TGI,SW-620 colon,> 12.5 µM
same,TGI,LXFL 529 NSCLC,> 12.5 µM
same,TGI,TK-10 renal,> 12.5 µM
same,TGI,OVCAR-4 ovarian,> 12.5 µM
same,TGI,CAKI-1 renal,> 12.5 µM
same,TGI,M19-MEL melanoma,> 12.5 µM
same,TGI,HCC-2998 colon,> 12.5 µM
same,TGI,HOP-62 NSCLC,> 12.5 µM
same,TGI,786-0 renal,> 12.5 µM
same,TGI,SR leukemia,> 12.5 µM
same,TGI,RPMI-8226 leukemia,> 12.5 µM
same,TGI,DLD-1 colon,> 12.5 µM
same,TGI,LOX IMVI melanoma,> 12.5 µM
same,TGI,SNB-19 CNS,> 12.5 µM
same,TGI,EKVX NSCLC,> 12.5 µM
same,TGI,UACC-257 melanoma,> 12.5 µM
same,TGI,SF-539 CNS,> 12.5 µM
same,TGI,SK-MEL-2 melanoma,> 12.5 µM
same,TGI,SNB-75 CNS,> 12.5 µM
same,TGI,HOP-92 NSCLC,> 12.5 µM
same,TGI,A498 renal,> 12.5 µM
same,TGI,KM20L2 colon,> 12.5 µM
same,TGI,OVCAR-5 ovarian,> 12.5 µM
same,TGI,OVCAR-8 ovarian,> 12.5 µM
same,TGI,NCI-H226 lung,> 12.5 µM
same,TGI,NCI-H23 lung,> 12.5 µM
same,TGI,HCT-116 colon,> 12.5 µM
same,TGI,UACC-62 melanoma,> 12.5 µM
same,TGI,HL-60(TB) leukemia,> 12.5 µM
same,TGI,K-562 leukemia,> 12.5 µM
same,TGI,COLO 205 colon,> 12.5 µM
